Source: US8247211B2, “Glycopeptide antibiotics” (American Cyanamid Company, priority 2001, dated 2012)
Values after ≈ are worked out from the molar mass of the structure shown.

How the values were obtained:
Assay in all cases: In vitro antibacterial evaluation: minimum inhibitory concentration (MIC), broth dilution method
Format in all cases: cell-based
Streptococcus sp. = conditions: for MIC Streptococcus pneumoniae (ATCC 6301): strain ATCC 6301; for MIC Streptococcus pneumoniae (GC 1894): strain GC 1894; for MIC Streptococcus pyogenes (GC 4563): strain GC 4563; for MIC Streptococcus agalactiae (GC 4564): strain GC 4564; for MIC Streptococcus pneumoniae (GC 4565): strain GC 4565
Procedure, shortened: (§1)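 Following NCCLS approved standard M7-A2, compounds are serially diluted from 64 to 0.06 μg/mL in Muller-Hinton II […] and inoculated at 5×10^5 CFU/mL; the MIC is the minimum concentration at which growth is inhibited.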

Enterococcus sp. = conditions: for MIC Enterococcus faecalis (ATCC 29212): strain ATCC 29212; for MIC Enterococcus faecalis (GC 2242): strain GC 2242; for MIC Enterococcus faecium (GC 2243): strain GC 2243; for MIC Enterococcus faecalis (GC 2691): strain GC 2691; for MIC Enterococcus faecalis (GC 3059): strain GC 3059; for MIC Enterococcus faecalis (GC 4552): strain GC 4552; for MIC Enterococcus faecalis (GC 4553): strain GC 4553; for MIC Enterococcus faecalis (GC 4554): strain GC 4554; for MIC Enterococcus faecium (GC 4556): strain GC 4556; for MIC Enterococcus faecium (GC 4557): strain GC 4557; for MIC Enterococcus avium (GC 4558): strain GC 4558; for MIC Enterococcus faecalis (GC 6189): strain GC 6189
Procedure, shortened: as §1

Escherichia coli = conditions: for MIC Escherichia coli (ATCC 25922): strain ATCC 25922; for MIC Escherichia coli (GC 4559): strain GC 4559; for MIC Escherichi coli (GC 4560): strain GC 4560
Procedure, shortened: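 NCCLS M7-A2 broth dilution; Muller-Hinton II […]; 5×10^5 CFU/mL; 64-0.06 μg/mL. MIC = lowest concentration with no growth.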

Staphylococcus sp. = conditions: broth dilution, 18 hours at 35° C.
Procedure, shortened: as §1

## COc1cc(OC)cc(C2OC3C(OC4C(CO)OC(Oc5ccc(CC6NC(=O)C(C(C)c7ccccc7)NC(=O)CNC(=O)C(CO)NC(=O)C(C(O)C7CNC(=N)N7C7OC(CO)C(O)C(O)C7O)NC(=O)C(C(O)C7CNC(=N)N7)NC6=O)cc5)C(O)C4O)OC(CO)C(O)C3O2)c1 (stereo not drawn) [Example 150a, Cyclo[glycyl-β-methylphenylalanyl-O-[4-O-[2,3-O-(3,5-dimethoxybenzylidene)hexopyranosyl]-hexopyranosyl]tyrosyl-3-(2-iminoimidazolidin-4-yl)seryl-3-(3-hexopyranosyl-2-iminoimidazolidin-4-yl)serylseryl]]
Streptococcus sp.
  MIC Streptococcus pneumoniae (ATCC 6301): 8 µg/mL (≈ 5.54 µM)
  MIC Streptococcus pneumoniae (GC 1894): 8 µg/mL (≈ 5.54 µM)
  MIC Streptococcus pyogenes (GC 4563): 16 µg/mL (≈ 11.1 µM)
  MIC Streptococcus agalactiae (GC 4564): 32 µg/mL (≈ 22.2 µM)
  MIC Streptococcus pneumoniae (GC 4565): 16 µg/mL (≈ 11.1 µM)
Enterococcus sp.
  MIC Enterococcus faecalis (ATCC 29212): >64 µg/mL
  MIC Enterococcus faecalis (GC 2242): >64 µg/mL
  MIC Enterococcus faecium (GC 2243): >64 µg/mL
  MIC Enterococcus faecalis (GC 2691): >64 µg/mL
  MIC Enterococcus faecalis (GC 3059): >64 µg/mL
  MIC Enterococcus faecalis (GC 4552): >64 µg/mL
  MIC Enterococcus faecalis (GC 4553): >64 µg/mL
  MIC Enterococcus faecalis (GC 4554): >64 µg/mL
  MIC Enterococcus faecium (GC 4556): >64 µg/mL
  MIC Enterococcus faecium (GC 4557): 16 µg/mL (≈ 11.1 µM)
  MIC Enterococcus avium (GC 4558): 64 µg/mL (≈ 44.3 µM)
  MIC Enterococcus faecalis (GC 6189): >64 µg/mL
Escherichia coli
  MIC Escherichia coli (ATCC 25922): >64 µg/mL
  MIC Escherichia coli (GC 4559): >64 µg/mL
  MIC Escherichi coli (GC 4560): 16 µg/mL (≈ 11.1 µM)
Staphylococcus sp.; 5×10^5 CFU/mL
  MIC Coagulase Negative Staphylococcus (GC 4547): 16 µg/mL (≈ 11.1 µM)
  MIC Coagulase Negative Staphylococcus (GC 4548): 8 µg/mL (≈ 5.54 µM)
  MIC Coagulase Negative Staphylococcus (GC 4549): 8 µg/mL (≈ 5.54 µM)
  MIC Coagulase Negative Staphylococcus (GC 4551): 32 µg/mL (≈ 22.2 µM)
  MIC Coagulase Negative Staphylococcus (GC 6257): 8 µg/mL (≈ 5.54 µM)
  MIC Staphylococcus aureus (ATCC 29213): 32 µg/mL (≈ 22.2 µM)
  MIC Staphylococcus aureus (GC 1131): 32 µg/mL (≈ 22.2 µM)
  MIC Staphylococcus aureus (GC 3051): 32 µg/mL (≈ 22.2 µM)
  MIC Staphylococcus aureus (GC 3053): 32 µg/mL (≈ 22.2 µM)
  MIC Staphylococcus aureus (GC 4541): 16 µg/mL (≈ 11.1 µM)
  MIC Staphylococcus aureus (GC 4542): 32 µg/mL (≈ 22.2 µM)
  MIC Staphylococcus aureus (GC 4544): 32 µg/mL (≈ 22.2 µM)
  MIC Staphylococcus aureus (GC 4545): 16 µg/mL (≈ 11.1 µM)
  MIC Staphylococcus aureus-SMITH (GC 4543): 16 µg/mL (≈ 11.1 µM)
  MIC Staphylococcus haemolyticus (GC 4546): 16 µg/mL (≈ 11.1 µM)
Staphylococcus sp.; strain ATCC 29213
  MIC Staphylococcus aureus (ATCC 29213): 32 µg/mL (≈ 22.2 µM)
Staphylococcus sp.; strain GC 1131
  MIC Staphylococcus aureus (GC 1131): 32 µg/mL (≈ 22.2 µM)
Staphylococcus sp.; strain GC 3051
  MIC Staphylococcus aureus (GC 3051): 32 µg/mL (≈ 22.2 µM)
Staphylococcus sp.; strain GC 3053
  MIC Staphylococcus aureus (GC 3053): 32 µg/mL (≈ 22.2 µM)
Staphylococcus sp.; strain GC 4541
  MIC Staphylococcus aureus (GC 4541): 16 µg/mL (≈ 11.1 µM)
Staphylococcus sp.; strain GC 4542
  MIC Staphylococcus aureus (GC 4542): 32 µg/mL (≈ 22.2 µM)
Staphylococcus sp.; strain GC 4543
  MIC Staphylococcus aureus-SMITH (GC 4543): 16 µg/mL (≈ 11.1 µM)
Staphylococcus sp.; strain GC 4544
  MIC Staphylococcus aureus (GC 4544): 32 µg/mL (≈ 22.2 µM)
Staphylococcus sp.; strain GC 4545
  MIC Staphylococcus aureus (GC 4545): 16 µg/mL (≈ 11.1 µM)
Staphylococcus sp.; strain GC 4546
  MIC Staphylococcus haemolyticus (GC 4546): 16 µg/mL (≈ 11.1 µM)
Staphylococcus sp.; strain GC 4547
  MIC Coagulase Negative Staphylococcus (GC 4547): 16 µg/mL (≈ 11.1 µM)
Staphylococcus sp.; strain GC 4548
  MIC Coagulase Negative Staphylococcus (GC 4548): 8 µg/mL (≈ 5.54 µM)
Staphylococcus sp.; strain GC 4549
  MIC Coagulase Negative Staphylococcus (GC 4549): 8 µg/mL (≈ 5.54 µM)
Staphylococcus sp.; strain GC 4551
  MIC Coagulase Negative Staphylococcus (GC 4551): 32 µg/mL (≈ 22.2 µM)
Staphylococcus sp.; strain GC 6257
  MIC Coagulase Negative Staphylococcus (GC 6257): 8 µg/mL (≈ 5.54 µM)

## Cc1cc(C2OCC3OC(OC4C(CO)OC(Oc5ccc(CC6NC(=O)C(C(C)c7ccccc7)NC(=O)CNC(=O)C(CO)NC(=O)C(C(O)C7CNC(=N)N7C7OC(CO)C(O)C(O)C7O)NC(=O)C(C(O)C7CNC(=N)N7)NC6=O)cc5)C(O)C4O)C(O)C(O)C3O2)ccc1[N+](=O)[O-] (stereo not drawn) [Example 151, Cyclo[glycyl-β-methylphenylalanyl-O-[4-O-[4,6-O-(3-methyl-4-nitrobenzylidene)hexonyranosyl]hexopyranosyl]tyrosyl-3-(2-iminoimidazolidin-4-yl)seryl-3-(3-hexopyranosyl-2-iminoimidazolidin-4-yl)serylseryl]]
Streptococcus sp.
  MIC Streptococcus pneumoniae (ATCC 6301): 1 µg/mL (≈ 0.693 µM)
  MIC Streptococcus pneumoniae (GC 1894): 0.5 µg/mL (≈ 0.347 µM)
  MIC Streptococcus pyogenes (GC 4563): 2 µg/mL (≈ 1.39 µM)
  MIC Streptococcus agalactiae (GC 4564): 4 µg/mL (≈ 2.77 µM)
  MIC Streptococcus pneumoniae (GC 4565): 1 µg/mL (≈ 0.693 µM)
Enterococcus sp.
  MIC Enterococcus faecalis (ATCC 29212): 32 µg/mL (≈ 22.2 µM)
  MIC Enterococcus faecalis (GC 2242): 16 µg/mL (≈ 11.1 µM)
  MIC Enterococcus faecium (GC 2243): 32 µg/mL (≈ 22.2 µM)
  MIC Enterococcus faecalis (GC 2691): 32 µg/mL (≈ 22.2 µM)
  MIC Enterococcus faecalis (GC 3059): 32 µg/mL (≈ 22.2 µM)
  MIC Enterococcus faecalis (GC 4552): 32 µg/mL (≈ 22.2 µM)
  MIC Enterococcus faecalis (GC 4553): 32 µg/mL (≈ 22.2 µM)
  MIC Enterococcus faecalis (GC 4554): 32 µg/mL (≈ 22.2 µM)
  MIC Enterococcus faecium (GC 4556): 32 µg/mL (≈ 22.2 µM)
  MIC Enterococcus faecium (GC 4557): 8 µg/mL (≈ 5.55 µM)
  MIC Enterococcus avium (GC 4558): 32 µg/mL (≈ 22.2 µM)
  MIC Enterococcus faecalis (GC 6189): 64 µg/mL (≈ 44.4 µM)
Escherichia coli
  MIC Escherichia coli (ATCC 25922): >64 µg/mL
  MIC Escherichia coli (GC 4559): >64 µg/mL
  MIC Escherichi coli (GC 4560): 2 µg/mL (≈ 1.39 µM)
Staphylococcus sp.; 5×10^5 CFU/mL
  MIC Coagulase Negative Staphylococcus (GC 4547): 4 µg/mL (≈ 2.77 µM)
  MIC Coagulase Negative Staphylococcus (GC 4548): 4 µg/mL (≈ 2.77 µM)
  MIC Coagulase Negative Staphylococcus (GC 4549): 2 µg/mL (≈ 1.39 µM)
  MIC Coagulase Negative Staphylococcus (GC 4551): 8 µg/mL (≈ 5.55 µM)
  MIC Coagulase Negative Staphylococcus (GC 6257): 2 µg/mL (≈ 1.39 µM)
  MIC Staphylococcus aureus (ATCC 29213): 8 µg/mL (≈ 5.55 µM)
  MIC Staphylococcus aureus (GC 1131): 8 µg/mL (≈ 5.55 µM)
  MIC Staphylococcus aureus (GC 3051): 8 µg/mL (≈ 5.55 µM)
  MIC Staphylococcus aureus (GC 3053): 16 µg/mL (≈ 11.1 µM)
  MIC Staphylococcus aureus (GC 4541): 4 µg/mL (≈ 2.77 µM)
  MIC Staphylococcus aureus (GC 4542): 8 µg/mL (≈ 5.55 µM)
  MIC Staphylococcus aureus (GC 4544): 8 µg/mL (≈ 5.55 µM)
  MIC Staphylococcus aureus (GC 4545): 4 µg/mL (≈ 2.77 µM)
  MIC Staphylococcus aureus-SMITH (GC 4543): 8 µg/mL (≈ 5.55 µM)
  MIC Staphylococcus haemolyticus (GC 4546): 2 µg/mL (≈ 1.39 µM)
Staphylococcus sp.; strain ATCC 29213
  MIC Staphylococcus aureus (ATCC 29213): 8 µg/mL (≈ 5.55 µM)
Staphylococcus sp.; strain GC 1131
  MIC Staphylococcus aureus (GC 1131): 8 µg/mL (≈ 5.55 µM)
Staphylococcus sp.; strain GC 3051
  MIC Staphylococcus aureus (GC 3051): 8 µg/mL (≈ 5.55 µM)
Staphylococcus sp.; strain GC 3053
  MIC Staphylococcus aureus (GC 3053): 16 µg/mL (≈ 11.1 µM)
Staphylococcus sp.; strain GC 4541
  MIC Staphylococcus aureus (GC 4541): 4 µg/mL (≈ 2.77 µM)
Staphylococcus sp.; strain GC 4542
  MIC Staphylococcus aureus (GC 4542): 8 µg/mL (≈ 5.55 µM)
Staphylococcus sp.; strain GC 4543
  MIC Staphylococcus aureus-SMITH (GC 4543): 8 µg/mL (≈ 5.55 µM)
Staphylococcus sp.; strain GC 4544
  MIC Staphylococcus aureus (GC 4544): 8 µg/mL (≈ 5.55 µM)
Staphylococcus sp.; strain GC 4545
  MIC Staphylococcus aureus (GC 4545): 4 µg/mL (≈ 2.77 µM)
Staphylococcus sp.; strain GC 4546
  MIC Staphylococcus haemolyticus (GC 4546): 2 µg/mL (≈ 1.39 µM)
Staphylococcus sp.; strain GC 4547
  MIC Coagulase Negative Staphylococcus (GC 4547): 4 µg/mL (≈ 2.77 µM)
Staphylococcus sp.; strain GC 4548
  MIC Coagulase Negative Staphylococcus (GC 4548): 4 µg/mL (≈ 2.77 µM)
Staphylococcus sp.; strain GC 4549
  MIC Coagulase Negative Staphylococcus (GC 4549): 2 µg/mL (≈ 1.39 µM)
Staphylococcus sp.; strain GC 4551
  MIC Coagulase Negative Staphylococcus (GC 4551): 8 µg/mL (≈ 5.55 µM)
Staphylococcus sp.; strain GC 6257
  MIC Coagulase Negative Staphylococcus (GC 6257): 2 µg/mL (≈ 1.39 µM)
